US20230233545A1, “TREATMENT OF ATRIAL DYSFUNCTION” (MyoKardia, Inc., priority 2020, published 2023)

What was measured:
[1] = system: LV (papillary) skinned muscle fibers; test: Myocardial force generation, LV skinned muscle fibers (tension-pCa, stiffness); format: biochemical, Yucatan mini-pig; details: at 3 μM
Description: (§1) The ability of Compound I to increase myocardial force generation at a given Ca2+ concentration was evaluated using LA (n=6) and LV (n=6) skinned muscle fibers prepared from three different Yucatan mini-pig hearts. In short, as previously described, 3 hearts were harvested, rinsed and shipped in cold cardioplegia solution (Custodiol® HTK; Essential Pharmaceuticals, LLC, NC, USA). Upon receipt, LV (papillary) and LA muscle fibers were dissected at 4° C. in a high-relaxing solution (100 mM BES, 10 mM EGTA, 6.57 mM MgCl2, 10 mM creatine phosphate, 6.22 mM ATP, 41.89 mM Kprop, 2.5 μM pepstatin, 1 μM leupeptin, 50 μM PMSF, 5 mM NaN3, pH 7.0). Fiber bundles were cut and skinned (in a high-relaxing solution containing 1% Triton X-100), fitted with aluminum foil t-clips, and mounted on a mechanics apparatus (Aurora Scientific Inc., ON, Canada). Sarcomere length was set to 2.0 μm. Steady-state isometric tension and stiffness (via a 3% stretch over 250 ms) were measured at increasing concentrations of Ca^2+ (pCa 8.0 to 4.5, adjusted to maintain 180 mM ionic strength) twice, first in the absence (control, 1% DMSO) and then in the presence of Compound I (3 μM, 1% DMSO). In all cases, tension values were normalized to the control maximum isometric tension (at pCa 4.5). Active and passive stiffness were calculated by measuring the slope of the early (Ca^2+ dependent) and late phases, respectively, of the tension response to the brief 3% stretches. Data are presented as means (SD) in text or as mean±SEM in figures; EC50 values (and 95% CIs) were calculated using a four-parameter-fit model (GraphPad Prism, GraphPad Software Inc., CA, USA).

LA skinned muscle fibers = test: Myocardial force generation, LA skinned muscle fibers (tension-pCa, stiffness); format: biochemical, Yucatan mini-pig; details: at 3 μM
Description: as §1, with “In all cases, tension values were normalized to the control maximum isometric tension (at pCa 4.5).” left out, “Data are presented as means (SD) in text or as mean±SEM in figures; EC50 values (and 95% CIs) were calculated using a four-parameter-fit model (GraphPad Prism, GraphPad Software Inc., CA, USA).” left out

[2] = system: dogs with microembolization-induced heart failure; test: Echocardiography/haemodynamics in dogs with microembolization-induced heart failure; format: in vivo, beagle dogs; details: 2-3 mg/kg orally, 5 hours post-treatment
From the text: Seven male beagle dogs underwent a modified serial coronary microembolization protocol to produce chronic LV dysfunction and HF (Geist et al., J Pharmacol Toxicol Methods (2019) 99:106595), as determined by both LV remodeling and decreases in LV ejection fraction (LVEF). A subset of animals (n=5) were also surgically implanted with a radio-telemetry transmitter (TL11M3-D70-PCTP; Data Sciences Int., MN, USA) to provide systemic arterial blood and LV pressures. The microembolization and instrumentation techniques employed have been previously validated (Hartman et al., JACC Basic Transl Sci. (2018) 3(5):625-38).
The effects of Compound I (at 2-3 mg/kg oral tablet; n=14) on LV/LA function and geometry, as well as systemic/ventricular haemodynamics, were examined by echocardiography in conscious, lightly sedated animals (butorphanol 0.25-0.5 mg/kg intravenous) before dosing (i.e., baseline) as well at 5 hours post-treatment.
In these experiments, 2D and 2D-guided M-mode echocardiographic (CX50; Philips Medical System, MA, USA) recordings of LV dimension, LA dimension (LAd) and aortic dimension (Aod), as well as LV volume estimates (Simpson's and Teichholz's methods), were obtained at end-systole/diastole in both short-axis (papillary-level) and/or apical/parasternal long-axis views. From these measurements, LV stroke volume (LVSV), cardiac output (CO), LV fractional shortening (LVFS), LV fractional area of shortening and LVEF, as well as the LAd/Aod ratio, were calculated. LV outflow tract (LVOT) blood velocity (via Doppler) was measured and the LVOT velocity−time integral (LVOT−VTI) calculated. In addition, maximal (end-systolic, LAmax) and minimal (end-diastolic, LAmin) LA volumes were measured using the bi-plane method; both LA emptying fraction (LAEF=100×[LAmax−LAmin]/LAmax) and LA functional index (LAFI=[LAEF×LVOT−VTI]/LAmax index) were calculated (Thomas et al., Eur J Echocardiogr (2008) 9(3):356-362). Diastolic trans-mitral peak flow velocities (E and A), mitral-annulus tissue velocities (e′, s′ and a′), and their ratios during early filling (E/e′), were recorded/used as indices of diastolic performance. In all cases, atrial and ventricular indexed volumes were calculated by normalizing to the estimated body surface area (0.101×[body weight in kg][…]), while reported data were derived by averaging at least three cardiac cycles. Finally, haemodynamic signals were digitally acquired (1000 Hz) and recorded continuously with a data acquisition/analysis system (IOX; EMKA Technologies). Heart rate (HR) and end-systolic and end-diastolic pressures, as well as the peak rates of pressure rise and decline (dP/dtmax and dP/dtmin, respectively), the contractility index (dP/dt/P at dP/dtmax), and the time constant of myocardial relaxation (tau1/2, time for 50% decay from dP/dtmin) were derived from the LV pressure signal. Systolic, diastolic and mean systemic blood pressures, as well as pulse pressures, were derived from the aortic pressure signal. Haemodynamic data were reported as the average over at least 1 minute (at steady state). In vivo data are presented as means (SD) in the text or as mean±SEM in the figures; mean differences between pre- and post-treatment values were evaluated via a two-tailed paired t-test with a significance level of 0.05 set a priori (GraphPad Prism, GraphPad Software Inc., CA, USA).

## Cn1cc(S(=O)(=O)[C@@](C)(F)C2CCN(C(=O)Nc3ccon3)CC2)c(C(F)F)n1 [Compound I, (R)-4-(1-((3-(difluoromethyl)-1-methyl-1H-pyrazol-4-yl)sulfonyl)-1-fluoroethyl)-N-(isoxazol-3-yl)piperidine-1-carboxamide]
[1]
  passive stiffness, ventricular skinned fibers: without altering passive stiffness
[1]; pCa 6.0
  increase in LV tension: 43%
[1]; data not shown
  maximal force-generation capability, ventricular skinned fibers: without altering
LA skinned muscle fibers
  passive stiffness, atrial skinned fibers: without altering passive stiffness
LA skinned muscle fibers; data not shown
  maximal force-generation capability, atrial skinned fibers: without altering
[2]; SD ±0.2, baseline 3.4 (±0.2), p<0.05
  LVESD: 3.2 cm
[2]; SD ±0.3, baseline 1.6 (±0.2)
  E/A: 1.6
[2]; SD ±0.3, baseline 4.3 (±0.2)
  LVEDD: 4.3 cm
[2]; SD ±1.1, baseline 7.4 (±1.0)
  e′ (mitral annular velocity): 7.3 cm/s
[2]; SD ±1.3, baseline 4.0 (±1.2), p<0.05
  a′ (late peak mitral annular velocity): 5.4 cm/s
[2]; SD ±1.6, baseline 3.4 (±0.9), p<0.05
  CO (cardiac output, estimated): 4.1 L/min
[2]; SD ±3.6, baseline 19.6 (±2.7), p<0.05
  LVFS: 25.6%
[2]; SD ±4.4, baseline −13.5 (±4.4), p<0.05
  LVGCS (LV global circumferential strain): −17.3%
[2]; SD ±6, baseline 41 (±5), p<0.05
  LVEF: 51%
[2]; SD ±6.5, baseline 7.7 (±3.3), p<0.05
  LAFI (left atrial functional index): 15.2
[2]; SD ±6.9, baseline 20.4 (±4.4), p<0.05
  LAEF (left atrial emptying fraction): 31.1%
[2]; SD ±8, baseline 41 (±6)
  A (late peak wave velocity, mitral inflow): 46 cm/s
[2]; SD ±9.0, baseline 21.2 (±8.3), p<0.05
  LAmin Vol. index (LAminVi): 17.9 mL/m^2
[2]; SD ±9.7, baseline 26.7 (±9.7), p<0.05
  LAmax Vol. index: 25.1 mL/m^2
[2]; SD ±13, baseline 66 (±10)
  DBP (diastolic blood pressure): 72 mmHg
[2]; SD ±40, baseline 71 (±12)
  E (early trans-mitral peak wave velocity): 74 cm/s
[2]; baseline 178 (±24), p<0.05
  SET (systolic ejection time): 200 ms
[2]; mean, SD ±10.7, baseline 33.0 (±5.9), p<0.05
  LVSV (left ventricular stroke volume): 43.6 mL
[2]; n/u, SD ±1.2, baseline 9.7 (±1.9)
  E/e′: 10.2
[2]; telemetry subset, SD ±4, baseline 18 (±2)
  LVEDP (LV end-diastolic pressure): 16 mmHg
[2]; telemetry subset, SD ±10, baseline 110 (±10)
  SBP (systolic blood pressure): 119 mmHg
[2]; telemetry subset, SD ±50, baseline 108 (±45), p<0.05
  HR (heart rate): 99 bpm
